Assay results published in patent US5240934A, “Quinoline derivatives” (priority 1990, dated 1993).
Where a name gives a salt, the structure may show the parent alone.

How the values were obtained:
[1] = test system: Amnesia Induced by Scopolamine in Rats; experiment: Effects on amnesia induced by scopolamine in rats (passive avoidance test); type: in vivo, Male Wister rats; details: p.o., 15 min after scopolamine hydrochloride 0.5 mg/kg i.p.
Method: Male Wister rats, 8 week old, were used as subjects. A conventional two-compartment box was used for the passive avoidance test.
Tested compounds were given p.o. 15 minutes after scopolamine hydrochloride (0.5 mg/kg, i.p.). At 15 minutes after the tested compound treatment, scrambled foot-schock (0.5 mA for 3 seconds) was applied to the rat immediately after entry into the dark compartment. Retention was measured 24 hours after the training and was expressed as the mean latency to enter the dark compartment, with a cut-off point at 600 seconds. Percent improvement for the tested compounds was evaluated taking the difference between the retention latency of the untreated group and that of the control group as 100%.

[2] = test system: Amnesia Induced by Scopolamine in Mice; experiment: Effects on amnesia induced by scopolamine in mice (passive avoidance test); type: in vivo, Male ddy mice; details: p.o., 30 min before scopolamine 1 mg/kg i.p.
Method: Male ddy mice, 6-7 week old, were used as subjects. A conventional two-compartment box was used for the passive avoidance test.
Tested compounds were given p.o. 30 minutes before scopolamine (1 mg/kg, i.p.). At 30 minutes after the scopolamine treatment, scrambled foot-schock (2 mA for 3 seconds) was applied to the mouse immediately after entry into the dark compartment. Retention was measured 6 hours after the training and was expressed as the mean latency to enter the dark compartment, with a cut-off point at 300 seconds. Percent improvement for the tested compounds were evaluated taking the difference between the retention latency of the untreated group and that of the control group as 100%.

acetylcholinesterase = acetylcholinesterase (Homo sapiens, UniProt P22303); experiment: Inhibitive effect on acetylcholinesterase activity (anti-acetylcholinesterase activity); type: biochemical
Method: Pharmacological action of the compound of the present invention was tested using several compounds prepared in Examples presented hereinafter and 9-amino-1,2,3,4-tetrahydroacridine (Tacrine) as a comparative compound.
Specific activities for the tested compounds were calculated using the following equation. [formula]

[3] = test system: senile dementia patients of Alzheimer type; details: Tacrine and lecithin; The New England Journal of Medicine, 315, 1241 (1986); cited from earlier work

acetylcholinesterase, sequence (P22303 32-614): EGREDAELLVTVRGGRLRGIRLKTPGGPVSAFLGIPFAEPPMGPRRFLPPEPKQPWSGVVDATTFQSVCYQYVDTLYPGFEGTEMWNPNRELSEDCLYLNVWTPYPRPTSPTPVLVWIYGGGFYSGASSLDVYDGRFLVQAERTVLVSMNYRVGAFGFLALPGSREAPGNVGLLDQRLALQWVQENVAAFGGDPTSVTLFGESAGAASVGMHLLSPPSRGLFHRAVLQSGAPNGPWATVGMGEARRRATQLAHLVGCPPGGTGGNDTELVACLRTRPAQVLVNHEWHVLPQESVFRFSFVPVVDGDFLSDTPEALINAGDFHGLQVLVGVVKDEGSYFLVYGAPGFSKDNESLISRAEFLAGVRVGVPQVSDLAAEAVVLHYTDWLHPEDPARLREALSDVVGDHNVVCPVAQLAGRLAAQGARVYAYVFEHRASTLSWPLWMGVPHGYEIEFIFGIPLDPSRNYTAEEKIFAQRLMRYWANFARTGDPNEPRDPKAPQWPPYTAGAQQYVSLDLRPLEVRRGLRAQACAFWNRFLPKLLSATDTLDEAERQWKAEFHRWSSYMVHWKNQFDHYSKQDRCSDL

## Cl.Cl.Nc1c2c(nc3ccccc13)CCC(CCC1CCN(Cc3ccccc3)CC1)C2=O (stereo not drawn) [Compound 14, 9-amino-2-(2-(1-benzylpiperidin-4-yl)ethyl)-1,2,3,4-tetrahydroacridin-1-one dihydrochloride]
[1]; 0.1 mg/kg
  Percent Improvement: 0%
[1]; 0.3 mg/kg
  Percent Improvement: 50.8%
[2]; 0.03 mg/kg
  Percent Improvement: 50.0%
[2]; 0.1 mg/kg
  Percent Improvement: 71.9%
acetylcholinesterase
  Anti-acetylcholinesterase Activity (Specific Activity): 5.00

## Nc1c2c(nc3ccccc13)CN(CCC1CCN(Cc3ccccc3)CC1)C2=O [Compound 7, 9-Amino-2-(4-(1-benzylpiperidyl)ethyl)-2,3-dihydropyrrolo-[3,4-b]quinolin-1-one]
[1]; 0.03 mg/kg
  Percent Improvement: 36.1%
[1]; 0.1 mg/kg
  Percent Improvement: 68.9%
[1]; 0.3 mg/kg
  Percent Improvement: 69.8%
[2]; 0.03 mg/kg
  Percent Improvement: 52.0%
[2]; 0.1 mg/kg
  Percent Improvement: 70.2%
acetylcholinesterase
  Anti-acetylcholinesterase Activity (Specific Activity): 1.94

## Nc1c2c(nc3ccccc13)CCCC2 [Tacrine, 9-amino-1,2,3,4-tetrahydroacridine, reference compound]
[3]
  improvement in symptoms of senile dementia patients of Alzheimer type: effectiveness
[2]; 0.1 mg/kg
  Percent Improvement: 0%
[2]; 1.0 mg/kg
  Percent Improvement: 26.9%

## COc1c2c(nc3ccccc13)CN(CCC1CCN(Cc3ccccc3)CC1)C2=O [Compound 67, 9-methoxy-2-(4-(1-benzylpiperidyl)ethyl)-2,3-dihydropyrrolo[3,4-b]quinolin-1-one]
[1]; 0.03 mg/kg
  Percent Improvement: 50.4%
[1]; 0.1 mg/kg
  Percent Improvement: 92.0%
[1]; 0.3 mg/kg
  Percent Improvement: 95.8%
acetylcholinesterase
  Anti-acetylcholinesterase Activity (Specific Activity): 9.52

## Nc1c2c(nc3ccccc13)CCC(CCCCC1CCN(Cc3ccccc3)CC1)C2=O (stereo not drawn) [Compound 46, 9-Amino-2-(4-(1-benzylpiperidin-4-yl)butyl)-1,2,3,4-tetrahydroacridin-1-onedihydrochloride]
[1]; 0.1 mg/kg
  Percent Improvement: 32.3%
[1]; 0.3 mg/kg
  Percent Improvement: 39.1%
acetylcholinesterase
  Anti-acetylcholinesterase Activity (Specific Activity): 47.62

## N#Cc1ccccc1NC1=CC(=O)N(CCC2CCN(Cc3ccccc3)CC2)C1 [Compound 2, N-(1-(4-(1-benzylpiperidyl)ethyl)-2-oxo-3-pyrrolin-4-yl)-2-aminobenzonitrile]
[2]; 0.01 mg/kg
  Percent Improvement: 10.0%
[2]; 0.3 mg/kg
  Percent Improvement: 72.8%
acetylcholinesterase
  Anti-acetylcholinesterase Activity (Specific Activity): 7.7

## O=C1c2c(nc3ccccc3c2O)CN1CCC1CCN(Cc2ccccc2)CC1 [Compound 61, 9-hydroxy-2-(4-(1-benzylpiperidyl)ethyl)-2,3-dihydropyrrolo[3,4-b]quinolin-1-one]
[1]; 0.03 mg/kg
  Percent Improvement: 33.0%
[1]; 0.1 mg/kg
  Percent Improvement: 86.1%
[1]; 0.3 mg/kg
  Percent Improvement: 86.5%

## N#Cc1ccccc1NC1=CC(=O)N(CCCC2CCN(Cc3ccccc3)CC2)C1 [Compound 3, N-(1-(4-(1-benzylpiperidyl)propyl)-2-oxo-3-pyrrolin-4-yl)-2-aminobenzonitrile]
[2]; 0.1 mg/kg
  Percent Improvement: 16.0%
[2]; 0.3 mg/kg
  Percent Improvement: 53.4%
acetylcholinesterase
  Anti-acetylcholinesterase Activity (Specific Activity): 13.5
